In patent US10080757B2 (WISCONSIN ALUMNI RESEARCH FOUNDATION, priority 2016, dated 2018):
Values after ≈ are worked out from the molar mass of the structure shown. “Also recorded” adds a separate entry of the source. Like-named read-outs stand apart in the source and are kept apart here.

Assays:
M. smegmatis [1] = test: Microplate Alamar Blue Assay (MIC, liquid culture); type: cell-based; settings: Mycolicibacterium smegmatis
Procedure: The culture was diluted to OD600=˜0.02 in LB liquid media and added to 96-well plates at a final volume of 100 μL, with added inhibitor concentrations in two-fold dilutions. Perimeter wells were filled with sterile water. After 24 hours at 37° C. in a shaking incubator, 10 μL of the Alamar Blue reagent was added to each well. The plate was incubated for an additional 4 hours at 37° C., at which point fluorescence emission at 585 nm was measured using a plate reader. The lowest inhibitor concentration at which 99% or greater growth inhibition was observed was determined to be the MIC.

CeUGM = CeUGM inhibition; type: biochemical, C. elegans
[2] = Aggregation by Dynamic Light Scattering (DLS); type: physicochemical; settings: for Aggregates observed?: 50 mM sodium phosphate buffer, 1% DMSO; for Aggregation by DLS: concentrations up to 50 μM
Procedure: A representative subset of the compounds (1, 2, and 4) were evaluated for aggregation by Dynamic Light Scattering (DLS), see Table 1. Samples for DLS analysis were prepared in 50 mM sodium phosphate buffer from DMSO inhibitor stocks, at a final DMSO concentration of 1%, and a range of final concentrations of inhibitor.

C. elegans [3] = test: C. elegans growth and proliferation; type: in vivo; settings: for Effective inhibitor of C. elegans growth at 250 μM / Inhibition of C. elegans proliferation: 250 μM; for Prevention of C. elegans maturation to adulthood and eventual proliferation: 100 μM
recombinant MtbUGM = molecular target: T1, recombinant MtbUGM (Mycobacterium tuberculosis, UniProt P9WIQ1); test: biochemical; settings: for inhibition at 100 µM: read-out: % inhib MtbUGM (100 μM)
T1 construct: made in house
T1 sequence (P9WIQ1 whole entry): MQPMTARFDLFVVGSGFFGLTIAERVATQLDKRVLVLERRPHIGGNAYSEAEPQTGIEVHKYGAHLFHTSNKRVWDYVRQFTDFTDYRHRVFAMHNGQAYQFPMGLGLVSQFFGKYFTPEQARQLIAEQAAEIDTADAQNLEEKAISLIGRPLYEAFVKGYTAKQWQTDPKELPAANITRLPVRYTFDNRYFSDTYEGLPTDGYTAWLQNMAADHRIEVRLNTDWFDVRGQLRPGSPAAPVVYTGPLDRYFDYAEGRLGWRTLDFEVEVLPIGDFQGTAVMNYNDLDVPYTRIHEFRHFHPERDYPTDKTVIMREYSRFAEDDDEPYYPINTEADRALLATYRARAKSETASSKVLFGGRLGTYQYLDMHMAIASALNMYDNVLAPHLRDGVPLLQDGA

M. smegmatis [4] = test: Agar disk diffusion assay; set-up: zone of inhibition: dose or concentration left out as unconfirmed; settings: Mycolicibacterium smegmatis, read-out: Inhibition zone
Procedure: M. smegmatis was grown to saturation over 48 hours at 37° C. in Middlebrook 7H9 media with Albumin Dextrose Catalase (ADC) enrichment and 0.05% Tween80. The culture was diluted to OD600=˜0.2 in LB liquid media and 100 μL of dilute culture was spread onto LB agar plates, then allowed to soak into the agar for 1 hour at room temperature. Sterile disks (3 mm diameter) were impregnated with a solution of inhibitor in DMSO (1.5 μL) and placed on top of the bacterial lawn. […] The plates were incubated for 72 hours at 37° C., at which point a lawn of bacteria was visible. Zones of inhibition were measured as the average diameter of the region around a cloning disk where bacterial growth was not visible. For each disk, three diameter measurements were taken and averaged.

C. elegans [5] = test: C. elegans growth and proliferation; type: in vivo; settings: threshold below which proliferation occurs at decreased rate
Excerpt: As concentration decreases, each of these compounds reaches a threshold where they no longer prevent worm proliferation, but rather cause retarded growth and development. The concentration that appears to be this threshold is reported above. Below this concentration, C. elegans growth and proliferation occur, but at a decreased rate with visible ill effects to the animal.

C. elegans [6] = test: Bleach sensitivity assay (time until first rupture); type: in vivo; settings: 50 microM; adult worms
Procedure: Compounds were tested at 50 microM. Adult worms (C. elegans) were chosen for testing and time until first rupture was measured when worms were placed in a bleach, sodium hydroxide solution. […] A graph showing results is provided as FIG. 4. Each treatment group has approximately an n=20. The Thompson Tau technique was used to determine statistical outliers.

[7] = Aggregation by Dynamic Light Scattering (DLS); type: physicochemical; settings: 1% DMSO
[8] = Table 3, liquid media, at least 99% growth inhibition
[9] = 50 μM compound (FIG. 1), read-out: Inhibition of MtbUGM activity
[10] = Table 2, standard deviation, n = 3
[11] = 50 μM, mean of two replicates, read-out: % inhib MtbUGM (50 μM)

SMILES	MIC (M. smegmatis [1]; [8]) [µM]	CeUGM % Inhibition at 2.5 μM (CeUGM) [%]	Aggregates observed? ([2]; Conc. 10 uM)	Aggregates observed? ([2]; Conc. 25 uM)	Aggregates observed? ([2]; Conc. 50 uM)	Aggregates observed? ([2]; Conc. 100 uM)	Aggregation by DLS [2]	Effective inhibitor of C. elegans growth at 250 μM (C. elegans [3]; Table 7)	IC50 (recombinant MtbUGM; [10]) [µM]	zone of inhibition (M. smegmatis [4]) [mm]	Apparent MIC (μM) to inhibit C. elegans propagation (C. elegans [5]) [µM]	Inhibition of C. elegans proliferation (C. elegans [3])	further results
O=C(O)C(Cc1ccc(I)cc1)Nc1nc(-c2ccc(Cl)c(Cl)c2)cs1 (centres unmarked) [Compound 1, 2-((4-(3,4-Dichlorophenyl)thiazol-2-yl)amino)-3-(4-iodophenyl)propanoic acid]	50 (≈ 26 µg/mL)	69.5 ± 1.2	No	No	No	Yes	No aggregation was observed	No	6	5 ± 0.1			inhibition at 50 µM (recombinant MtbUGM; [9]): > 90%
O=C(NS(=O)(=O)c1ccc([N+](=O)[O-])cc1)C(Cc1ccc(I)cc1)Nc1nc(-c2ccc(Cl)c(Cl)c2)cs1 (centres unmarked) [Compound 5, 2-((4-(3,4-dichlorophenyl)thiazol-2-yl)amino)-3-(4-iodophenyl)-N-((4-nitrophenyl)sulfonyl)propanamide]	50 (≈ 35.2 µg/mL)	93.2 ± 0.1						Yes	4 ± 1	4.2 ± 0.3	125	significantly inhibit	
O=C(CC1Sc2nnc(Cc3ccc(Br)cc3)n2N=C1c1ccc(Cl)cc1)NS(=O)(=O)c1ccccc1 (centres unmarked) [Compound 13, 2-(3-(4-bromobenzyl)-6-(4-chlorophenyl)-7H-[1,2,4]triazolo[3,4-b][1,3,4]thiadiazin-7-yl)-N-(phenylsulfonyl)acetamide]											250	significantly inhibit	MIC (M. smegmatis [1]; Table 4): 125 µM (≈ 77.1 µg/mL); CeUGM % Inhibition at 10 μM (CeUGM; 10 μM): 91.7 ± 0.5%; Effective inhibitor of C. elegans growth at 250 μM (C. elegans [3]; Table 8): Yes; inhibition at 50 µM (recombinant MtbUGM; [11]): 92%; inhibition at 100 µM (recombinant MtbUGM; mean of two replicates): 94%; IC50 (recombinant MtbUGM; Table 4): 19 ± 6 µM
O=C(NS(=O)(=O)c1ccccc1)C(Cc1ccc(I)cc1)Nc1nc(-c2ccc(Cl)c(Cl)c2)cs1 (centres unmarked) [Compound 4, 2-((4-(3,4-dichlorophenyl)thiazol-2-yl)amino)-3-(4-iodophenyl)-N-(phenylsulfonyl)propanamide]	25 (≈ 16.5 µg/mL)	92.2 ± 0.2	No	No	No	Yes	No aggregation was observed	Yes	7 ± 2	7.3 ± 0.6	250	significantly inhibit	Time until first rupture in bleach, sodium hydroxide solution (C. elegans [6]): enhances bleach sensitivity significantly; also recorded: statistically significant decrease
O=C(NS(=O)(=O)c1ccccc1[N+](=O)[O-])C(Cc1ccc(I)cc1)Nc1nc(-c2ccc(Cl)c(Cl)c2)cs1 (centres unmarked) [Compound 9, 2-((4-(3,4-dichlorophenyl)thiazol-2-yl)amino)-3-(4-iodophenyl)-N-((2-nitrophenyl)sulfonyl)propanamide]	12.5 (≈ 8.79 µg/mL)	92.1 ± 1.0						Yes	2 ± 1	5.7 ± 0.1	125	significantly inhibit	
O=C(O)CC1Sc2nnc(Cc3ccc(Br)cc3)n2N=C1c1ccc(-c2ccccc2)cc1 (centres unmarked) [Compound 25, 2-(6-([1,1′-biphenyl]-4-yl)-3-(4-bromobenzyl)-7H-[1,2,4]triazolo[3,4-b][1,3,4]thiadiazin-7-yl)acetic acid]													MtbUGM activity in presence of compound (in words) (recombinant MtbUGM; 10 μM): completely ablated; inhibition at 10 µM (recombinant MtbUGM; 10 μM, mean of two replicates, read-out: % inhib MtbUGM (10 μM)): 100%; inhibition at 50 µM (recombinant MtbUGM; [11]): 100%; inhibition at 100 µM (recombinant MtbUGM; mean of two replicates): 100%; Effect of surfactant on relative inhibitor potency (recombinant MtbUGM; presence and absence of Tween80): insignificant; Aggregates by dynamic light scattering ([7]; 10 μM in PBS buffer): No aggregates were observed; Aggregates by dynamic light scattering ([7]; 100 μM in PBS buffer): No aggregates were observed
O=C(NS(=O)(=O)C(F)(F)F)C(Cc1ccc(I)cc1)Nc1nc(-c2ccc(Cl)c(Cl)c2)cs1 (centres unmarked) [Compound 3, 2-((4-(3,4-dichlorophenyl)thiazol-2-yl)amino)-3-(4-iodophenyl)-N-((trifluoromethyl)sulfonyl)propanamide]	50 (≈ 32.5 µg/mL)	84.8 ± 2.2						Yes	16 ± 10	7.7 ± 0.6	100	significantly inhibit	Prevention of C. elegans maturation to adulthood and eventual proliferation (C. elegans [3]): show the ability to prevent C. elegans maturation to adulthood and eventual proliferation
O=C(NS(=O)(=O)c1ccc(Cl)cc1)C(Cc1ccc(I)cc1)Nc1nc(-c2ccc(Cl)c(Cl)c2)cs1 (centres unmarked) [Compound 8, N-((4-chlorophenyl)sulfonyl)-2-((4-(3,4-dichlorophenyl)thiazol-2-yl)amino)-3-(4-iodophenyl)propanamide]	12.5 (≈ 8.66 µg/mL)	100 ± 0						Yes	3 ± 1	6.3 ± 0.6	250	significantly inhibit	
CS(=O)(=O)NC(=O)C(Cc1ccc(I)cc1)Nc1nc(-c2ccc(Cl)c(Cl)c2)cs1 (centres unmarked) [Compound 2, 2-((4-(3,4-dichlorophenyl)thiazol-2-yl)amino)-3-(4-iodophenyl)-N-(methylsulfonyl)propanamide]	25 (≈ 14.9 µg/mL)	80.7 ± 1.1	No	No	No	No	No aggregation was observed	Yes	12 ± 5	7 ± 0.1	100	significantly inhibit	Prevention of C. elegans maturation to adulthood and eventual proliferation (C. elegans [3]): show the ability to prevent C. elegans maturation to adulthood and eventual proliferation; inhibition at 50 µM (recombinant MtbUGM; [9]): > 90%; Time until first rupture in bleach, sodium hydroxide solution (C. elegans [6]): enhances bleach sensitivity significantly; also recorded: statistically significant decrease
